Test results from US11530216B2, “Deuterated colony stimulating factor-1 receptor (CSF-1R) inhibitors” (Genzyme Corporation, priority 2020, dated 2022).
Read-outs that look alike come from different tables or passages of the source.

Legend:
[1] = tested on: primary murine microglia; assay: Immunostaining of primary microglia (Iba1+ area, DAPI+ nuclei) after CSF-1 stimulation; format: cell-based, mouse; conditions: Mus musculus, Microglia
Protocol: Primary mouse microglia were suspended at a concentration of 5×10^5 cells/mL and 100 μL of this cell suspension was added to the inner 60 wells of three 96-well plates. Microglia cells were allowed to rest overnight at 37° C., 5% CO2. […] Cells were then stimulated with 100 ng/mL recombinant mouse CSF-1 for 24 hours. After stimulation, the culture supernatant was removed from each well and aliquoted into two different 96-well plates for subsequent ELISA assays. Plates were fixed with 4% PFA for future immunocytochemistry analysis. Following the stimulation, cells were fixed with 4% PFA for 20 minutes at room temperature. Cells were then rinsed in PBS, washed 3×5 minutes in 0.2% PBT (0.2% Triton X-100 in PBS) and blocked with 10% donkey serum/0.2% PBT for 1 hour at room temperature. […] After staining, plates were imaged on the IN Cell Analyzer 2200 with 9 fields of view acquired per well. […] A one-way ANOVA was used to determine the statistical significance of differences between samples. […] Following a microglial stimulation, immunocytochemistry was completed with Iba1, Ki67, and DAPI to determine microglial morphology, proliferative state, and number. InCell imaging microsope and analysis software was used to quantify Iba1^+ area, and the number of DAPI^+ nuclei within the cultures.

[2] = tested on: MCP-1 production in primary mouse microglia (wild type, SOD1); assay: MCP-1 ELISA, wild-type and SOD1 primary microglia, CSF-1 stimulation; format: cell-based; conditions: CSF-1 stimulation, 50, 100, 200 nM, wild type and SOD1 cells
Protocol: (§1) The impact of a deuterated CSF-1R inhibitor of this disclosure on cytokine/chemokine production following CSF-1 or LPS stimulation in wild-type versus SOD1 mutant primary microglial cells was examined in the following experiments.
(§2) Methods Treatment and Stimulation of Primary Microglial Cells
(§3) Primary mouse microglia were suspended at a concentration of 5×10^5 cells/mL and 100 μL of this cell suspension was added to each well of a 96-well plate. Microglia cells were allowed to rest overnight at 37° C., 5% CO2. […] Cells were then stimulated with 100 ng/mL recombinant mouse M-CSF for 30 minutes or 10 ng/mL lipopolysaccharide for 24 hours. After stimulation, the culture supernatant was removed from each well and aliquoted into two different 96-well plates for subsequent ELISA assays.
(§4) Culture supernatants were assayed with the Quantikine Mouse MCP-1 ELISA kit from R&D Systems (cat #SMJE00B). Samples were diluted 1:10 with Calibrator Diluent. Fifty microliters of Assay Diluent were first added to each well. Fifty microliters of Standards, Assay Control and diluted Sample were then added to the wells. The plate was mixed by gently tapping the frame, then sealed with an adhesive strip. The plate incubated for 2 hours at room temperature. […] After incubation, the acid stop solution was added to each well, and the plate was read on the ELISA plate reader at 450 nm.

[3] = tested on: IL-12p40 production in primary mouse microglia (wild type, SOD1); assay: IL-12p40 ELISA, wild-type and SOD1 primary microglia, LPS stimulation; format: cell-based; conditions: LPS stimulation, 50, 100, 200 nM, wild type and SOD1 cells
Protocol: as §1, §2, §3
as §4, with “Cell culture supernatants were” for “Culture supernatants were”, “Quantikine Mouse IL-12p40 ELISA kit” for “Quantikine Mouse MCP-1 ELISA kit”, “Systems (cat #MP400). Samples were” for “Systems (cat #SMJE00B). Samples were”, “then added in singlicate to the” for “then added to the”

[4] = tested on: MCP-1 production in iCell microglia (human iPSC derived microglia); assay: MCP-1 ELISA, iCell human microglia, CSF1 stimulation; format: cell-based; conditions: 1.5625-200 nM, CSF1 100 ng/mL 24 hours
Protocol: iCell microglia (human iPSC derived microglia) were acquired from FujiFilm (cat #C1110, lot #105458). These cells were thawed and maintained in iCell Microglia Complete Media according the manufacture instructions. For this assay, iCell microglia were resuspended at a concentration of 5×10^5 cells/mL and 100 μL of this cell suspension was added to the inner 60 wells of a 96-well plate. iCell microglia were allowed to rest overnight at 37° C., 5% CO2. The following evening, the media was removed and replaced with Neurobasal Media (Gibco, cat #21103049) containing B27 supplement (Gibco, cat #17504044). Again, cells were allowed to rest overnight at 37° C., 5% CO2. […] Cells were then stimulated with 100 ng/mL recombinant human CSF1 for 24 hours. After stimulation, the culture supernatant was removed from each well and aliquoted into two different 96-well plates for subsequent ELISA assays.
Culture supernatants were assayed with the Quantikine Human MCP-1 ELISA kit (R&D Systems, cat #SCP00). […] After incubation, fifty microliters of the acid stop solution was added to each well, and the plate was read on the FlexStation3 Multi-Mode Microplate Reader (Molecular Devices, cat #Flex3) with SoftMax Pro Software at 450 nm.
iCell microglia (human iPSC derived microglia) were plated at 50,000 cells per well and rested overnight. […] Cell viability was assessed utilizing Promega's Cell Titer Glo Assay Kit. […]

[2H]c1nc2cccnc2n1Cc1cc(OC)c2c(c1)O[C@@H](C)[C@H](c1ccc(OC)nc1)O2 [Compound 6, 3-(((2S,3S)-8-methoxy-2-(6-methoxypyridin-3-yl)-3-methyl-2,3-dihydrobenzo[b][1,4]dioxin-6-yl)methyl)-3H-imidazo[4,5-b]pyridine-2-d]
IC50 ([1]; read-out: IC50 for DAPI (DAPI+ cell number)): 248 nM | IC50 ([1]; read-out: IC50 for Iba1 (Iba1+ area)): 84.6 nM | MCP-1 production [2]: significantly reduced MCP-1 production in a concentration dependent manner | IL12-p40 production [3]: significantly reduced IL12-p40 production in a concentration dependent manner | MCP1 production [4]: significantly reduced MCP1 production in a concentration dependent manner
